Experimental data reported in ChEMBL document CHEMBL5729737, “FGFR4 inhibitor, preparation method therefor, and applications thereof” (2023).

What was measured:
[1] = target: Fibroblast growth factor receptor 1 (Homo sapiens, UniProt P11362); test: Enzymologic Experiment of FGFR1: In this experiment, the inhibitory effect of the compounds on FGFR1 kinase activity was tested by a fluorescence resonance energy transfer (TR-FRET) method, and the half maximal inhibitory concentration (IC50) of the compounds on the FGFR1 kinase activity was determined. 1) 1˜5 μL of FGFR1 enzyme solution was added to a 384-well plate, and the final concentration of the enzyme was 0.1˜5 nM. 2) 1˜5 μL of diluted solution in gradient of the compound was added. 3) 1˜5 μL of a substrate mixture containing substrate polypeptide with a final concentration of 5˜50 nM and ATP with a final concentration of 10˜200 μM was added. 4) The mixture was incubated for 0.5˜3 hours at room temperature. 5) 10 μL of EDTA and a test solution comprising labeled antibody were added, and the plate was incubated for 1 hour at room temperature. 6) The fluorescence signal values of each plate were determined by a microplate reader at 665 nm.7) The inhibition rates were calculated according to the fluorescence signal values.
Fibroblast growth factor receptor 1, sequence (P11362 whole entry): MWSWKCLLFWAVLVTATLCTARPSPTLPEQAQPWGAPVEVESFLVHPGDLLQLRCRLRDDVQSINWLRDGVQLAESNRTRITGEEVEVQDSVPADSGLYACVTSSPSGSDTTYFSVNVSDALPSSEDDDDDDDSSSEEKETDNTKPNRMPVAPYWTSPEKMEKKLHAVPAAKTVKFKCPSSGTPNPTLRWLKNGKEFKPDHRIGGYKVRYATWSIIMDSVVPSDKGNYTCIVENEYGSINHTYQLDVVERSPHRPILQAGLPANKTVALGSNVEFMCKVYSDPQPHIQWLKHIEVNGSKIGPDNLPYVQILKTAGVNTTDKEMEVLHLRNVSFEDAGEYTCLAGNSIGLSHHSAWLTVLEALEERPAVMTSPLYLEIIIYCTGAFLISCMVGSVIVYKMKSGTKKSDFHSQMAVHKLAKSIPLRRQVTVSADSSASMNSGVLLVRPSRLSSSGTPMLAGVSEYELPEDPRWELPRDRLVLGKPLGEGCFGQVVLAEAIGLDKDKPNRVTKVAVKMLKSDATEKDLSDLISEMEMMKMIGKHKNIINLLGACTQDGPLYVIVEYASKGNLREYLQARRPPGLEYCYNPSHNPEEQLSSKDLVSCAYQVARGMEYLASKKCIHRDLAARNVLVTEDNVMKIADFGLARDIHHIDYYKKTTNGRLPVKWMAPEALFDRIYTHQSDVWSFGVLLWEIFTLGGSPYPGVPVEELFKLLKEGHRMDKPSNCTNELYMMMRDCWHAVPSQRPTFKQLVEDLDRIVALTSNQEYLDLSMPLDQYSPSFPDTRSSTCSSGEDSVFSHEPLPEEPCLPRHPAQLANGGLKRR

[2] = target: Fibroblast growth factor receptor 4 (Homo sapiens, UniProt P22455); test: 5) 10 μL of EDTA and a test solution comprising labeled antibody were added, and the plate was incubated for 1 hour at room temperature. […] 7) The inhibition rates were calculated according to the fluorescence signal values.
Fibroblast growth factor receptor 4, sequence (P22455 whole entry): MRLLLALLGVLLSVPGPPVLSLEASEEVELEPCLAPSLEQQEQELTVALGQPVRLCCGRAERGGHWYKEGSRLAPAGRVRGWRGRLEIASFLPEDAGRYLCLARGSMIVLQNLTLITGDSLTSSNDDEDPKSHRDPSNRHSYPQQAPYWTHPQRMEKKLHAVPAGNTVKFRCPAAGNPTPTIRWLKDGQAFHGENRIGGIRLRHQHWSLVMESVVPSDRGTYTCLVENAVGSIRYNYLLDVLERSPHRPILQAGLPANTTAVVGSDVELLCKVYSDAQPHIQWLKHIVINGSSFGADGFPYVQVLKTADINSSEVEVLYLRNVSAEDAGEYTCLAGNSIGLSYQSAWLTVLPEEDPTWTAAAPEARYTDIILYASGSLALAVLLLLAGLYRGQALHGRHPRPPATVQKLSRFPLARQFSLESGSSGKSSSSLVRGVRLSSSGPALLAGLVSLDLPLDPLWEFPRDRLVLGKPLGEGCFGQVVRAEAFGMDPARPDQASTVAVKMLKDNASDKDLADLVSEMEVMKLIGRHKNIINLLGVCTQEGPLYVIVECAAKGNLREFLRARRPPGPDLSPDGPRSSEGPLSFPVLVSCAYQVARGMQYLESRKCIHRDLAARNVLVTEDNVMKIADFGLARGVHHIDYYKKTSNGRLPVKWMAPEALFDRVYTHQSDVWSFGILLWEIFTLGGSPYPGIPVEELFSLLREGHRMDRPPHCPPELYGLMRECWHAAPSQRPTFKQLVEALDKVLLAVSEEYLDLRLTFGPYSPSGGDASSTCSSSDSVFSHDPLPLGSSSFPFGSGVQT

IC50 [1] | IC50 [2] | Structure (SMILES)
> 10 µM | – | CO[C@@H]1CCCC1Nc1cc(NC(=O)N2CCCc3cc(CN4CCOCC4=O)c(C=O)nc32)ncc1C#N (stereo partly drawn)
> 10 µM | – | COCCNc1cc(NC(=O)N2CCCc3cc(CN4CCCCOC4=O)c(C=O)nc32)ncc1C#N
– | 0.00096 µM | COC[C@@H](C)Nc1cc(NC(=O)N2CCCc3cc(CN4CCCCOC4=O)c(C=O)nc32)ncc1C#N
